Data taken from patent US11319318B2, “Pyridinones and isoquinolinones as inhibitors of the bromodomain BRD9” (Boehringer Ingelheim International GmbH, priority 2015, dated 2022).

Each compound was assayed against T1, bromodomain of BRD9 (GST fusion) / acetylated histone H4 peptide (BET Bromodomain Ligand) (Homo sapiens, UniProt Q9H8M2) (assay: BRD9-H4 Tetraacetylated Peptide Inhibition AlphaScreen).
T1 construct: A GST fusion protein of the bromodomain of BRD9; purchased BPS Biosciences #32519
T1 sequence (Q9H8M2 136-240 limits assumed): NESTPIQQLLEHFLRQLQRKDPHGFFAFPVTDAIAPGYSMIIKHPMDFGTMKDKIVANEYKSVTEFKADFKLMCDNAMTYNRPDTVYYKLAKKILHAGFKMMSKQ
Format: binding
Excerpt: BRD9-H4 Tetraacetylated Peptide Inhibition AlphaScreen
This assay is used to identify compounds which inhibit the interaction of the bromodomain of BRD9 with a tetra-acetylated peptide based on the sequence of histone H4 (termed the “BET Bromodomain ligand” as purchased from BPS Biosciences).
A GST fusion protein of the bromodomain of BRD9 and an acetylated histone H4 peptide (the “BET Bromodomain Ligand” are purchased as part of the BRD9 Inhibitor Screening Assay Kit at BPS Biosciences (Cat. Number: #32519)
AlphaScreen Beads (Perkin Elmer):
AlphaLISA Glutathione Acceptor Beads
AlphaScreen Streptavidin Donor Beads
Assay plates: Proxiplate-384 PLUS, white (PerkinElmer)
The assay is done in a darkened room below 100 Lux.
Compounds are dispensed onto assay plates using an Access Labcyte Workstation with the Labcyte Echo 550 from a DMSO solution. For the chosen highest concentration of 100 μM, 150 nl of compound solution are transferred from a 10 mM DMSO solution. A series of 11 concentrations is transferred for each compound at which each concentration is five-fold lower than the previous one (i.e. 100 μM, 20 μM, 4 μM, 0.8 μM, etc). DMSO is added such that every well has a total of 150 nl of DMSO.
15 μl of the resulting mix are added to the assay plates that contain 150 nl of the compounds. After 60 min at room temperature the signal is measured in a PerkinElmer Envision HTS Multilabel Reader using the AlphaScreen specifications from PerkinElmer.
Each plate contains negative controls where biotinylated BET Bromodomain Ligand and GST-BRD9 are left out and replaced by assay buffer. Negative control values are entered as low basis value when using the software GraphPad Prism for calculations.

Row | SMILES | IC50
1 | CN1CCN(C(=O)c2ccc(-c3cc(O)c(=O)n(C)c3)cc2)CC1 [Compound I-45, 3-Hydroxy-1-methyl-5-[4-(4-methyl-piperazine-1-carbonyl)-phenyl]-1H-pyridin-2-one] | 2090 nM
2 | Cc1cc(-c2ccc(C3(N)CC3)cc2)cn(C)c1=O [Compound I-69] | 15 nM
3 | Cc1cc(-c2ccc(CN)cc2)cn(C)c1=O [Compound I-78] | 130 nM
4 | Cc1cc(-c2ccc(CN3CCNCC3)cc2)cn(C)c1=O [Compound I-79] | 60 nM
5 | Cc1cc(-c2ccc(CN3CCN(C)CC3)cc2)cn(C)c1=O [Compound I-88] | 78 nM
6 | COc1cc(-c2cc(C)c(=O)n(C)c2)ccc1C(=O)N1CCN(C)CC1 [Compound I-89, 5-[3-methoxy-4-(4-methyl-piperazine-1-carbonyl)-phenyl]-1,3-dimethyl-1H-pyridin-2-one] | 70 nM
7 | Cc1cc(-c2ccc(N)cc2)cn(C)c1=O [Compound I-91] | 128 nM
8 | Cc1cc(-c2ccc([C@H](C)N)cc2)cn(C)c1=O [Compound I-93] | 112 nM
9 | Cc1cc(-c2ccc([C@@H](C)N)cc2)cn(C)c1=O [Compound I-94] | 334 nM
10 | Cc1cc(-c2ccc(C(=O)c3cncnc3)cc2)cn(C)c1=O [Compound I-97] | 267 nM
11 | Cc1cc(-c2ccc(C(=O)c3c(Cl)ncnc3Cl)cc2)cn(C)c1=O [Compound I-100] | 50 nM
12 | Cc1cc(-c2cccc(OC(F)F)c2)cn(C)c1=O [Compound I-101] | 503 nM
13 | COc1cc(-c2cc(C)c(=O)n(C)c2)ccc1C(=O)N1CCNCC1 [Compound I-158] | 19 nM
14 | Cc1cc(-c2cc(C)c(=O)n(C)c2)cc(C)c1C(=O)N1CCNCC1 [Compound I-160] | 33 nM
15 | COc1cc(C(=O)N2CCNCC2)ccc1-c1cc(C)c(=O)n(C)c1 [Compound I-161] | 32 nM
16 | Cc1cc(-c2cc(C)c(=O)n(C)c2)ccc1C(=O)N1CCNCC1 [Compound I-162] | 33 nM
17 | CCS(=O)(=O)Cc1cc(-c2cc(C)c(=O)n(C)c2)ccc1C(=O)N1CCNCC1 [Compound I-169, 5-[3-Ethanesulfonylmethyl-4-(piperazine-1-carbonyl)-phenyl]-1,3-dimethyl-1H-pyridin-2-one] | 29 nM
18 | Cc1cc(-c2ccc(C(=O)N3CCNCC3)c(CS(C)(=O)=O)c2)cn(C)c1=O [Compound I-170] | 29 nM
19 | Cc1cc(-c2ccc(C(=O)N3CCN(C)CC3)c(CS(C)(=O)=O)c2)cn(C)c1=O [Compound I-171] | 103 nM
20 | CCS(=O)(=O)Cc1cc(-c2cc(C)c(=O)n(C)c2)ccc1C(=O)N(C)C [Compound I-172] | 294 nM
21 | COc1cc(C(=O)N2CCN(C)CC2)ccc1-c1cc(C)c(=O)n(C)c1 [Compound I-173, 5-[2-Methoxy-4-(4-methyl-piperazine-1-carbonyl)-phenyl]-1,3-dimethyl-1H-pyridin-2-one] | 151 nM
22 | Cc1cc(-c2cc(C)c(=O)n(C)c2)ccc1C(=O)N1CCN(C)CC1 [Compound I-174] | 106 nM
23 | Cc1cc(-c2ccc(C(=O)N3CCN(C)CC3)c3ccccc23)cn(C)c1=O [Compound I-175] | 135 nM
24 | Cc1cc(-c2ccc(C(=O)N3CCN(C)CC3)c(Cl)c2)cn(C)c1=O [Compound I-176] | 204 nM
25 | Cc1cc(-c2ccc(C(=O)N3CCN(C)CC3)c(O)c2)cn(C)c1=O [Compound I-188, 5-[3-Hydroxy-4-(4-methyl-piperazine-1-carbonyl)-phenyl]-1,3-dimethyl-1H-pyridin-2-one] | 270 nM
26 | Cc1cc(-c2ccc(CN3C[C@@H]4C[C@H]3CN4)cc2)cn(C)c1=O [Compound I-189, 5-{4-[(S)-1-(2,5-Diaza-bicyclo[2.2.1]hept-2-yl)methyl]-phenyl}-1,3-dimethyl-1H-pyridin-2-one] | 23 nM
27 | COc1cc(-c2cc(C)c(=O)n(C)c2)ccc1CN1CCNCC1 [Compound I-190, 5-(3-methoxy-4-piperazin-1-ylmethyl-phenyl)-1,3-dimethyl-1H-pyridin-2-one] | 21 nM
28 | COc1cc(-c2cc(C)c(=O)n(C)c2)ccc1CN1CCN(C)CC1 [Compound I-191, 5-[3-methoxy-4-(4-methyl-piperazin-1-ylmethyl)-phenyl]-1,3-dimethyl-1H-pyridin-2-one] | 3 nM
29 | CNCc1ccc(-c2cc(C)c(=O)n(C)c2)cc1OC [Compound I-192] | 33 nM

Other lines, results leading:

Row | IC50 | SMILES
30 | 86 nM | CN1CCN(C(=O)c2ccc(-c3cn(C)c(=O)c4ccccc34)cc2)CC1 [II-4]
31 | 398 nM | CCn1cc(-c2ccc(C(=O)N3CCN(C)CC3)cc2)c2ccccc2c1=O [II-15]
32 | 983 nM | CCn1cc(-c2ccc(C(=O)N(C)C)cc2)c2ccccc2c1=O [II-16]
33 | 984 nM | CN1CCN(C(=O)c2ccc(-c3cn(C4CC4)c(=O)c4ccccc34)cc2)CC1 [II-18]
34 | 1160 nM | Cc1ccc(-c2cn(C)c(=O)c3cccc(F)c23)cc1NS(C)(=O)=O [II-27]
35 | 923 nM | Cc1ccc(-c2cn(C)c(=O)c3cccc(C)c23)cc1NS(C)(=O)=O [II-28, N-[5-(2,5-Dimethyl-1-oxo-1,2-dihydro-isoquinolin-4-yl)-2-methyl-phenyl]-methanesulfonamide]
36 | 239 nM | Cc1ccc(-c2cn(C)c(=O)c3ccccc23)cc1NS(C)(=O)=O [II-29]
37 | 293 nM | CCS(=O)(=O)Nc1cc(-c2cn(C)c(=O)c3ccccc23)ccc1C [II-35, Ethanesulfonic acid [2-methyl-5-(2-methyl-1-oxo-1,2-dihydro-isoquinolin-4-yl)-phenyl]-amide]
38 | 5250 nM | Cc1ccc(-c2cn(C)c(=O)c3cccc(O)c23)cc1NS(C)(=O)=O [II-36, N-[5-(5-Hydroxy-2-methyl-1-oxo-1,2-dihydro-isoquinolin-4-yl)-2-methyl-phenyl]-methanesulfonamide]
39 | 2690 nM | Cc1ccc(-c2cn(C)c(=O)c3cc(N)ccc23)cc1NS(C)(=O)=O [II-37, N-[5-(7-Amino-2-methyl-1-oxo-1,2-dihydro-isoquinolin-4-yl)-2-methyl-phenyl]-methanesulfonamide]
40 | 8420 nM | Cc1ccc(-c2cn(C)c(=O)c3cccc(N)c23)cc1NS(C)(=O)=O [II-38, N-[5-(5-amino-2-methyl-1-oxo-1,2-dihydro-isoquinolin-4-yl)-2-methyl-phenyl]-methanesulfonamide]
41 | 7830 nM | CNc1cccc2c(=O)n(C)cc(-c3ccc(C)c(NS(C)(=O)=O)c3)c12 [II-39, N-[2-Methyl-5-(2-methyl-5-methylamino-1-oxo-1,2-dihydro-isoquinolin-4-yl)-phenyl]-methanesulfonamide]
42 | 5440 nM | CNc1ccc2c(-c3ccc(C)c(NS(C)(=O)=O)c3)cn(C)c(=O)c2c1 [II-40]
43 | 645 nM | CCn1cc(-c2ccc(C)c(NS(C)(=O)=O)c2)c2cc[nH]c2c1=O [III-1, N-[5-(6-Ethyl-7-oxo-6,7-dihydro-1H-pyrrolo[2,3-c]pyridin-4-yl)-2-methyl-phenyl]-methanesulfonamide]
